# According to US20240158393A1, “PYRIDONE COMPOUNDS AND METHODS OF USE” (Exelixis, Inc., priority 2021, published 2024):
# pIC50: −log10 of the molar value. Structures can show the parent of a compound that is named as a salt.
# Key:
# [1] = biological target: T1, Human KDR (Homo sapiens, UniProt P35968); assay: Human KDR kinase assay (33P radiometric / HTRF KinEase); format: biochemical; settings: protocols of Examples B-1 and/or B-2
# T1 construct: Human KDR (residues K790-V1356, 55 nM); purchased Eurofins Pharma Discovery Services UK Limited (KinaseProfiler, B-1) and/or CarnaBio (B-2)
# In short: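 Radiometric: KDR K790-V1356 (55 nM), MOPS pH 7.0, myelin basic protein, 10 μM [γ-33P]ATP, 40 min at room temperature, filter-bound 33P counted; nine half-log doses, top 1 μM. HTRF: KDR 790-1356, 1 μM biotinylated peptide, ATP at Km (4.0 μM), 40 min, 10 doses. IC50 from logistic fits.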
# [2] = biological target: T2, Human Axl (Homo sapiens, UniProt P30530); assay: Human AXL kinase assay (33P radiometric / HTRF KinEase); format: biochemical; settings: protocols of Examples A-1 and/or A-2
# T2 construct: Human AXL (residues 464-885)
# T2 sequence (P30530 1-894 Q764R): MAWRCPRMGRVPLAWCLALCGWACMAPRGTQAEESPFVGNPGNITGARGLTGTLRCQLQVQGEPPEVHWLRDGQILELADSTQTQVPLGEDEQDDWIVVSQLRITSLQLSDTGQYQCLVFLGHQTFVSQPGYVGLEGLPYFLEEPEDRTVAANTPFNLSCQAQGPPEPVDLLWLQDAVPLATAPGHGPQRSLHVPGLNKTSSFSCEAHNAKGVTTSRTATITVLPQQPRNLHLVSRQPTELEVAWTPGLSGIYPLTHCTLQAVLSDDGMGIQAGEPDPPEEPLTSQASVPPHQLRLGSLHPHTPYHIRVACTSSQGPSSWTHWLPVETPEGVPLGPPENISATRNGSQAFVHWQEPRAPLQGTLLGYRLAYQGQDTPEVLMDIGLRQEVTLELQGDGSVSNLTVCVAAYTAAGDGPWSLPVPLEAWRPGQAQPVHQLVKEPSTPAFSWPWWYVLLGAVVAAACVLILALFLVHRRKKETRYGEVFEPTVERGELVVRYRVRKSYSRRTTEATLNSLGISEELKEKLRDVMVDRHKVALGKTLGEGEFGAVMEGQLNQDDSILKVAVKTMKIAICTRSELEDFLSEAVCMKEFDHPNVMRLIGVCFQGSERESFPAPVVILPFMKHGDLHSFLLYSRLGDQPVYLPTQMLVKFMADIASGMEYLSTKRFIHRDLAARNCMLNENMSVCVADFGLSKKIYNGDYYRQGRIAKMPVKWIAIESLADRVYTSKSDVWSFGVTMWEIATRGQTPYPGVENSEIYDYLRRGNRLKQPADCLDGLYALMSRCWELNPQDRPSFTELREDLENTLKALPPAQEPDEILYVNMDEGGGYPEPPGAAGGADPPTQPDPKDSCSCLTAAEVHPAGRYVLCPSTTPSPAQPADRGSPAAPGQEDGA
# T1 sequence (P35968 790-1356): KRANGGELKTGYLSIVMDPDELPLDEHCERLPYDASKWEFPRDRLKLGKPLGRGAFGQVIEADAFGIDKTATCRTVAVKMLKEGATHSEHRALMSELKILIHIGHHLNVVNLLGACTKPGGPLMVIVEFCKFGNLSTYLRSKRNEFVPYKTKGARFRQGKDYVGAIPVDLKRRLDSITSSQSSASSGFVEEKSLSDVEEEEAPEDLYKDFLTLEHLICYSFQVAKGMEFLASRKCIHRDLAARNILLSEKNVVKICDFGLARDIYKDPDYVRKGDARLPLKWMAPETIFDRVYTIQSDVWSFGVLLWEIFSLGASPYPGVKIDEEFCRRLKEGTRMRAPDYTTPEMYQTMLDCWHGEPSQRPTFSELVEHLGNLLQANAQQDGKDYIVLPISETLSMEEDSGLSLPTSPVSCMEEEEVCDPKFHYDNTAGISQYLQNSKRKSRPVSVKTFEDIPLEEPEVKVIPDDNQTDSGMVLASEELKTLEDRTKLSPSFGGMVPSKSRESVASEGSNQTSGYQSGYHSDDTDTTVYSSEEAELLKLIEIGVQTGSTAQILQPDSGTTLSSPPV
pIC50 [1],pIC50 [2],Structure (SMILES)
< 6.52,≥ 7.00,"C=C(C)c1c(C)n(C)c(C)c(C(=O)Nc2ccc(Oc3ccnc4cc(OC)c(OC)nc34)c(F)c2)c1=O [Compound 52, N-[4-[(6,7-Dimethoxy-1,5-naphthyridin-4-yl)oxy]-3-fluorophenyl]-1,2,6-trimethyl-4-oxo-5-prop-1-en-2-ylpyridine-3-carboxamide]"
< 6.52,≥ 7.00,"COc1cc2nccc(Oc3ccc(NC(=O)c4c(C)n(C)c(C)c(C5=CCOCC5)c4=O)cc3F)c2nc1OC [Compound 53, 5-(3,6-Dihydro-2H-pyran-4-yl)-N-[4-[(6,7-dimethoxy-1,5-naphthyridin-4-yl)oxy]-3-fluorophenyl]-1,2,6-trimethyl-4-oxopyridine-3-carboxamide]"
6.52 to 7.00,≥ 7.00,"COCCOc1cc2nccc(Oc3ccc(NC(=O)c4c(C)n(C)c(C)c(/C=C/C5CCCC5)c4=O)cc3F)c2nc1OC [Compound 54, 5-[(E)-2-Cyclopentylethenyl]-N-[3-fluoro-4-[[6-methoxy-7-(2-methoxyethoxy)-1,5-naphthyridin-4-yl]oxy]phenyl]-1,2,6-trimethyl-4-oxopyridine-3-carboxamide]"
< 6.52,≥ 7.00,"C=C(C)c1c(C)n(C)c(C)c(C(=O)Nc2ccc(Oc3ccnc4cc(OC)c(OC)nc34)cc2)c1=O [Compound 55, N-[4-[(6,7-Dimethoxy-1,5-naphthyridin-4-yl)oxy]phenyl]-1,2,6-trimethyl-4-oxo-5-prop-1-en-2-ylpyridine-3-carboxamide]"
≥ 7.00,≥ 7.00,"COCCOc1cc2nccc(Oc3ccc(NC(=O)c4c(C)n(C)c(C)c(C5=CCCCC5)c4=O)cc3F)c2nc1OC [Compound 58, 5-(Cyclohexen-1-yl)-N-[3-fluoro-4-[[6-methoxy-7-(2-methoxyethoxy)-1,5-naphthyridin-4-yl]oxy]phenyl]-1,2,6-trimethyl-4-oxopyridine-3-carboxamide]"
6.52 to 7.00,≥ 7.00,"COCCOc1cnc2c(Oc3ccc(NC(=O)c4c(C)n(C)c(C)c(C5=CCCC5)c4=O)cc3F)ccnc2c1 [Compound 65, 5-(Cyclopenten-1-yl)-N-[3-fluoro-4-[[7-(2-methoxyethoxy)-1,5-naphthyridin-4-yl]oxy]phenyl]-1,2,6-trimethyl-4-oxopyridine-3-carboxamide]"
< 6.52,≥ 7.00,"COCCOc1cnc2c(Oc3ccc(NC(=O)c4c(C)n(C)c(C)c(C5=CCCCC5)c4=O)cc3F)ccnc2c1 [Compound 66, 5-(Cyclohexen-1-yl)-N-[3-fluoro-4-[[7-(2-methoxyethoxy)-1,5-naphthyridin-4-yl]oxy]phenyl]-1,2,6-trimethyl-4-oxopyridine-3-carboxamide]"
< 6.52,≥ 7.00,"COc1cc2nccc(Oc3ccc(NC(=O)c4c5n(c(C)c(C6=CCOCC6)c4=O)CCOC5)cc3)c2nc1OC [Compound 73, 7-(3,6-Dihydro-2H-pyran-4-yl)-N-[4-[(6,7-dimethoxy-1,5-naphthyridin-4-yl)oxy]phenyl]-6-methyl-8-oxo-3,4-dihydro-1H-pyrido[2,1-c][1,4]oxazine-9-carboxamide]"
≥ 7.00,≥ 7.00,"COc1nc2c(Oc3ccc(NC(=O)c4c(C)n(C)c(C)c(C5=CCCC5)c4=O)cc3F)ccnc2cc1OCCC1CCC1 [Compound 74, N-[4-[[7-(2-Cyclobutylethoxy)-6-methoxy-1,5-naphthyridin-4-yl]oxy]-3-fluorophenyl]-5-(cyclopenten-1-yl)-1,2,6-trimethyl-4-oxopyridine-3-carboxamide]"
≥ 7.00,≥ 7.00,"COc1cc2nccc(Oc3ccc(NC(=O)c4cnc(C)c(C5=CCCC5)c4O)cc3F)c2nc1OC [Compound G1-2, 5-(Cyclopenten-1-yl)-N-[4-[(6,7-dimethoxy-1,5-naphthyridin-4-yl)oxy]-3-fluorophenyl]-4-hydroxy-6-methylpyridine-3-carboxamide hydrochloride]"
≥ 7.00,≥ 7.00,"COc1cc2nccc(Oc3ccc(NC(=O)c4cnc(C)c(C5=CCCCC5)c4O)cc3F)c2nc1OC [Compound G1-3, 5-(Cyclohexen-1-yl)-N-[4-[(6,7-dimethoxy-1,5-naphthyridin-4-yl)oxy]-3-fluorophenyl]-4-hydroxy-6-methylpyridine-3-carboxamide]"
≥ 7.00,≥ 7.00,"COc1cc2nccc(Oc3ccc(NC(=O)c4c5n(cc(C6=CCCCC6)c4=O)CCOC5)cc3F)c2nc1OC [Compound G1-4, 7-(Cyclohexen-1-yl)-N-[4-[(6,7-dimethoxy-1,5-naphthyridin-4-yl)oxy]-3-fluorophenyl]-8-oxo-3,4-dihydro-1H-pyrido[2,1-c][1,4]oxazine-9-carboxamide]"
